# Experimental data reported in ChEMBL document CHEMBL3425471, “Design, synthesis and biological evaluation of novel pyrazoline-containing derivatives as potential tubulin assembling inhibitors” (Eur J Med Chem, 2015).
# Assays:
# [1] = test system: HepG2; test: Induction of apoptosis in human HepG2 cells assessed as necrotic cells at 0.01 uM after 24 hrs by AnnexinV-FITC/PI staining based flow cytometry (reference value: 1.63%); format: functional
# [2] = test system: HepG2; test: Induction of apoptosis in human HepG2 cells assessed as early apoptotic cells at 0.01 uM after 24 hrs by AnnexinV-FITC/PI staining based flow cytometry (reference value: 3.89%); format: functional
# [3] = biological target: Tubulin (Bos taurus, UniProt Q6B856+Q862L2+Q862F3); test: Inhibition of bovine brain tubulin polymerization after 20 mins by turbidimetric analysis
# [4] = test system: HepG2; test: Induction of apoptosis in human HepG2 cells assessed as viable cells at 0.01 uM after 24 hrs by AnnexinV-FITC/PI staining based flow cytometry (reference value: 93.0%); format: functional; conditions: HepG2, 24 h, read-out: Activity
# [5] = test system: HepG2; test: Induction of apoptosis in human HepG2 cells assessed as necrotic cells at 0.05 uM after 24 hrs by AnnexinV-FITC/PI staining based flow cytometry (reference value: 1.63%); format: functional
# [6] = test system: HepG2; test: Induction of apoptosis in human HepG2 cells assessed as viable cells at 0.05 uM after 24 hrs by AnnexinV-FITC/PI staining based flow cytometry (reference value: 93.0%); format: functional; conditions: HepG2, 24 h, read-out: Activity
# [7] = test system: HepG2; test: Cell cycle arrest in human HepG2 cells assessed as accumulation of cells at G1 phase of cell cycle at 0.03 uM after 48 hrs by propidium iodide staining based flow cytometry (reference value: 75.2%); format: functional
# [8] = test system: HepG2; test: Induction of apoptosis in human HepG2 cells assessed as necrotic cells at 0.03 uM after 24 hrs by AnnexinV-FITC/PI staining based flow cytometry (reference value: 1.63%); format: functional
# [9] = test system: HepG2; test: Induction of apoptosis in human HepG2 cells assessed as late apoptotic cells at 0.01 uM after 24 hrs by AnnexinV-FITC/PI staining based flow cytometry (reference value: 1.49%); format: functional
# [10] = test system: HepG2; test: Induction of apoptosis in human HepG2 cells assessed as late apoptotic cells at 0.03 uM after 24 hrs by AnnexinV-FITC/PI staining based flow cytometry (reference value: 1.49%); format: functional
# [11] = test system: HepG2; test: Cell cycle arrest in human HepG2 cells assessed as accumulation of cells at S phase of cell cycle at 0.01 uM after 48 hrs by propidium iodide staining based flow cytometry (reference value: 19.71%); format: functional
# [12] = test system: HepG2; test: cells; conditions: Homo sapiens, HepG2, 24 h
# Description: Antiproliferative activity against human HepG2 cells assessed as reduction in cell viability after 24 hrs by MTT assay
# [13] = test system: HepG2; test: Cell cycle arrest in human HepG2 cells assessed as accumulation of cells at S phase of cell cycle at 0.05 uM after 48 hrs by propidium iodide staining based flow cytometry (reference value: 19.71%); format: functional
# [14] = test system: HepG2; test: Induction of apoptosis in human HepG2 cells assessed as late apoptotic cells at 0.05 uM after 24 hrs by AnnexinV-FITC/PI staining based flow cytometry (reference value: 1.49%); format: functional
# [15] = test system: HepG2; test: Induction of apoptosis in human HepG2 cells assessed as early apoptotic cells at 0.05 uM after 24 hrs by AnnexinV-FITC/PI staining based flow cytometry (reference value: 3.89%); format: functional
# [16] = test system: HepG2; test: Cell cycle arrest in human HepG2 cells assessed as accumulation of cells at S phase of cell cycle at 0.03 uM after 48 hrs by propidium iodide staining based flow cytometry (reference value: 19.71%); format: functional
# [17] = test system: HepG2; test: Cell cycle arrest in human HepG2 cells assessed as accumulation of cells at G1 phase of cell cycle at 0.05 uM after 48 hrs by propidium iodide staining based flow cytometry (reference value: 75.2%); format: functional
# [18] = test system: MCF7; test: cells; conditions: Homo sapiens, MCF7, 24 h
# Description: Antiproliferative activity against human MCF7 cells assessed as reduction in cell viability after 24 hrs by MTT assay
# [19] = test system: HepG2; test: Cell cycle arrest in human HepG2 cells assessed as accumulation of cells at G2 phase of cell cycle at 0.05 uM after 48 hrs by propidium iodide staining based flow cytometry (reference value: 5.09%); format: functional
# [20] = test system: A549; test: cells; conditions: Homo sapiens, A549, 24 h
# Description: Antiproliferative activity against human A549 cells assessed as reduction in cell viability after 24 hrs by MTT assay
# [21] = test system: HepG2; test: Induction of apoptosis in human HepG2 cells assessed as viable cells at 0.03 uM after 24 hrs by AnnexinV-FITC/PI staining based flow cytometry (reference value: 93.0%); format: functional; conditions: HepG2, 24 h, read-out: Activity
# [22] = test system: HepG2; test: Induction of apoptosis in human HepG2 cells assessed as early apoptotic cells at 0.03 uM after 24 hrs by AnnexinV-FITC/PI staining based flow cytometry (reference value: 3.89%); format: functional
# [23] = test system: HepG2; test: Cell cycle arrest in human HepG2 cells assessed as accumulation of cells at G2 phase of cell cycle at 0.01 uM after 48 hrs by propidium iodide staining based flow cytometry (reference value: 5.09%); format: functional
# [24] = test system: HepG2; test: Cell cycle arrest in human HepG2 cells assessed as accumulation of cells at G1 phase of cell cycle at 0.01 uM after 48 hrs by propidium iodide staining based flow cytometry (reference value: 75.2%); format: functional
# [25] = test system: HepG2; test: Cell cycle arrest in human HepG2 cells assessed as accumulation of cells at G2 phase of cell cycle at 0.03 uM after 48 hrs by propidium iodide staining based flow cytometry (reference value: 5.09%); format: functional
compound,measurement,setting,value
COc1ccc(C2=NN(C(=O)c3cc(OC)c(OC)c(OC)c3)C(c3ccc4c(c3)OCO4)C2)cc1 (stereo not given),Activity,[1],1.75%
same,Activity,[2],5.12%
same,IC50,[3],1.88 µM
same,viability at 0.01 µM,[4],91.2%
same,Activity,[5],4.86%
same,viability at 0.05 µM,[6],76.4%
same,Activity,[7],35.62%
same,Activity,[8],3.76%
same,Activity,[9],1.92%
same,Activity,[10],2.52%
same,Activity,[11],25.06%
same,IC50,[12],0.03 µM
same,Activity,[13],13.14%
same,Activity,[14],5.34%
same,Activity,[15],13.4%
same,Activity,[16],14.28%
same,Activity,[17],34.65%
same,IC50,[18],0.05 µM
same,Activity,[19],52.2%
same,IC50,[20],0.07 µM
same,viability at 0.03 µM,[21],85%
same,Activity,[22],8.72%
same,Activity,[23],5.99%
same,Activity,[24],68.96%
same,Activity,[25],50.11%
